How the values were obtained:
[1] = system: Rhizopus oryzae JCM14625 strain (=NBRC 5384); experiment: LDH activity evaluation-1: mycelia prepared from spores in surfactant-supplemented PDB medium, LDH activity of fungus body extract; type: cell-based
Description: A loopful of a cryopreserved spore suspension sample (−80° C.) of a Rhizopus oryzae JCM14625 strain (=NBRC 5384) obtained from a culture collection Riken BioResource Center (BRC) was inoculated to a PDA medium (Difco Potato Dextrose Agar, manufactured by Becton, Dickinson and Company) and then statically cultured at 30° C. for from 7 to 10 days. After visual confirmation of hyphal growth and blackening at the ends of hyphae associated with sporulation, from 30 to 40 mL of saline was added thereto. Spores, together with hyphae, were collected into a 50-mL centrifugal tube with a lid (manufactured by Greiner bio-one) using a platinum loop and then vigorously mixed in the tube. The spore suspension thus mixed was filtered through 3GP100 cylindrical funnel-shaped glass filter (manufactured by Shibata Scientific Technology Ltd.). The resulting filtrate was used as a spore solution. The number of spores in the spore solution was measured using a hemocytometer (D=1/50 mm· 1/400 mm^2) after appropriate dilution with saline.
80 mL of a PDB medium non-supplemented or supplemented with 0.5% (w/v) (final concentration) of each surfactant described below was applied to a 200-mL baffled Erlenmeyer flask (manufactured by Asahi Glass Co., Ltd.). The Rhizopus oryzae spore suspension prepared in Production Example 1 was inoculated thereto at a dose of 1×10^3 spores/mL of the medium and then cultured at 27° C. for 3 days with stirring at 170 rpm. Since mycelia would remain on the filter, the cultures were filtered through a stainless sieve of 250 μm in mesh size (manufactured by AS ONE Corp.) sterilized in advance to recover fungus bodies onto the filter.
From3.0 to 4.0 g (wet weight) of the recovered fungus bodies was inoculated to 100 mL of an inorganic culture medium (composition: 10% glucose, 0.1% ammonium sulfate, 0.06% potassium dihydrogen phosphate, 0.025% magnesium sulfate heptahydrate, 0.009% zinc sulfate heptahydrate, and 5.0% calcium carbonate; all the concentrations mean % (w/v)) applied to a 500-mL Erlenmeyer flask, and then cultured at 27° C. for approximately 40 hours with stirring at 220 rpm. Subsequently, the cultures thus obtained by culture in the inorganic culture medium were filtered using a stainless screen filter holder (manufactured by EMD Millipore) sterilized in advance to recover fungus bodies onto the filter. On this filter holder, the fungus bodies were further washed with 100 mL of saline. The saline used in washing was removed by suction filtration. The obtained fungus bodies were used in the following LDH activity evaluation and evaluation of the ability to fermentatively produce lactic acid.
6.0 g of the wet fungus bodies of the genus Rhizopus obtained in Production Example 3 was inoculated to 40 mL of an inorganic culture medium for lactic acid production evaluation (composition: 8.0% glucose, 0.1% ammonium sulfate, 0.06% potassium dihydrogen phosphate, 0.025% magnesium sulfate heptahydrate, 0.009% zinc sulfate heptahydrate, and 5.0% calcium carbonate; all the concentrations mean % (w/v)) applied to a 200-mL Erlenmeyer flask, and then cultured at 35° C. with stirring at 170 rpm. After 4.5-hour culture of the fungus bodies of the genus Rhizopus with stirring, the fungus bodies were filtered using a stainless screen filter holder (manufactured by EMD Millipore) sterilized in advance to recover fungus bodies onto the filter. On this filter holder, the fungus bodies were further washed with 100 mL of saline. The saline used in washing was removed by suction filtration. 0.3 g of the obtained fungus bodies was recovered into a 3-mL disruption tube (manufactured by Yasui Kikai Corp.). Metal cone for 3 mL (manufactured by Yasui Kikai Corp.) was added to the tube, which was then capped and then frozen in liquid nitrogen. The frozen 3-mL disruption tube was applied to Multi-Beads Shocker (manufactured by Yasui Kikai Corp.). The fungus bodies were disrupted at 1700 rpm for 10 seconds.

[2] = system: Rhizopus oryzae NBRC 5418; experiment: Evaluation of ability to produce lactic acid-2, strain NBRC 5418; type: cell-based; details: 0.5% (w/v) at spore germination, control of the strain without surfactant = 100
Description: (1) Spore suspensions were prepared in the same way as in Production Example 1 using Rhizopus oryzae NBRC 4707, NBRC 4785, NBRC 5384 (=JCM14625), and NBRC 5418 strains obtained from a culture collection NBRC.
(2) Mycelia were prepared from the spores of each strain under the same conditions as in Production Example 2 involving stirring at 100 rpm using 60 mL of a PDB medium non-supplemented or supplemented with 0.5% (w/v) (final concentration) of the surfactant sorbitan monolaurate (Rheodol(R) SP-L10, manufactured by Kao Corp.).
(3) The total amount of the fungus bodies obtained in (2) was inoculated to 100 mL of an inorganic culture medium under the same conditions as in Production Example 3 to grow the mycelia. […]
30 g of the prepared wet fungus bodies of each strain of the genus Rhizopus was inoculated to 100 mL of an inorganic culture medium for lactic acid production evaluation (composition: 12.5% glucose, 0.1% ammonium sulfate, 0.06% potassium dihydrogen phosphate, 0.025% magnesium sulfate heptahydrate, 0.009% zinc sulfate heptahydrate, and 6.25% calcium carbonate; all the concentrations mean % (w/v)) applied to a 500-mL Erlenmeyer flask, and then cultured at 33.5° C. with stirring at 170 rpm. The production rate of lactic acid was determined by the same procedures as in Test Example 2. […]

## Sorbitan monolaurate
[1]; 0.5% (w/v) surfactant at spore germination, versus medium non-supplemented with the surfactant
  LDH activity compared with control fungus bodies (in words): higher LDH activity
[1]; 0.5% (w/v) surfactant in PDB medium at spore germination, LDH activity in the absence of the surfactant = 100
  LDH activity (relative value): 267 relative value
[2]
  Production rate of lactic acid (relative value): 135 relative value

Source: patent US20150125915A1, “Method for Producing Lactic Acid” (Kao Corporation, priority 2012, published 2015)
